Earlier results as cited in patent publication US20190167675A1, “METHODS AND COMPOSITIONS FOR APPETITE CONTROL AND WEIGHT MANAGEMENT” (SHANGHAI YAO YUAN BIOTECHNOLOGY CO., LTD., priority 2016, published 2019).
Read-outs that look alike come from different tables or passages of the source.

Key:
[1] = test system: ENaC; details: pig AEC type II cells; cited from earlier work
[2] = test system: ENaC; details: dog AEC type II cells; cited from earlier work
[3] = target: T1, ENaC (Rattus norvegicus, UniProt P37089+P37090+P37091); details: rat AEC type II cells; cited from earlier work
T1 construct: amiloride-sensitive Na+ currents (via ENaC) in rat, dog, and pig AEC type II cells; endogenous in cells; host or cells: rat AEC type II cells
T1 sequence (P37089 1-698): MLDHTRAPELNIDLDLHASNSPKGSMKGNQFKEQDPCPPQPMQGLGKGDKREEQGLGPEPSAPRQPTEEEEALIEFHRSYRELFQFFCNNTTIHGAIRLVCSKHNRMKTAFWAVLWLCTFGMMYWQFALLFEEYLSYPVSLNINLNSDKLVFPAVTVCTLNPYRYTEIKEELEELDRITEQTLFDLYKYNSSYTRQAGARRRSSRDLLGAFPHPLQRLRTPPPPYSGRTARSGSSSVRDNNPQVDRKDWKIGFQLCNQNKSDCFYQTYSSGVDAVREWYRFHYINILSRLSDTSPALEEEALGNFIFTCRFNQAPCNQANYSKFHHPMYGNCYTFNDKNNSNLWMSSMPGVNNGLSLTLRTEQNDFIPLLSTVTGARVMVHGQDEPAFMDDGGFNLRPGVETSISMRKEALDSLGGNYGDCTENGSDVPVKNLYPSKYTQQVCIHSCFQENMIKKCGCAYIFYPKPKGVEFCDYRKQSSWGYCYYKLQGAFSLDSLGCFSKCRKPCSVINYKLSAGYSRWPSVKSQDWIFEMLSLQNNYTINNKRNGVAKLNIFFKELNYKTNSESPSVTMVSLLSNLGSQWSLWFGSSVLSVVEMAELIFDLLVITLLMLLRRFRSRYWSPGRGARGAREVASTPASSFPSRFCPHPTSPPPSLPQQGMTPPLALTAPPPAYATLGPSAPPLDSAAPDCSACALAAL
T1 sequence (P37090 1-638): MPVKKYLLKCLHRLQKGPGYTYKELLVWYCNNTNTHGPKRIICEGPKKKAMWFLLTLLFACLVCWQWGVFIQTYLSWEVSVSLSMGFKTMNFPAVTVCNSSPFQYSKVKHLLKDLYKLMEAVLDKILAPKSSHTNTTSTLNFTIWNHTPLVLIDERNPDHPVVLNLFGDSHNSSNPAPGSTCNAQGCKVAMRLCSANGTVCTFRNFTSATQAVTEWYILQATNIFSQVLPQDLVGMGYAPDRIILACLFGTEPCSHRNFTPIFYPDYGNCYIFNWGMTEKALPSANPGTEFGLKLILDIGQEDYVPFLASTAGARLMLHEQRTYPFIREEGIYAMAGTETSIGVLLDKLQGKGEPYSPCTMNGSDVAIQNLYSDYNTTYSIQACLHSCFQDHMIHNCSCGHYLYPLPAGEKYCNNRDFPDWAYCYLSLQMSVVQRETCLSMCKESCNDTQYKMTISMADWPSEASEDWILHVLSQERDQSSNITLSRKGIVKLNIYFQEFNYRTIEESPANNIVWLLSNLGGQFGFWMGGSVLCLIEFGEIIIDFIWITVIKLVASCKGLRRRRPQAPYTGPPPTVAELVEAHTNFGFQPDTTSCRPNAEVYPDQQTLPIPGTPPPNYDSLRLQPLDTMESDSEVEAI
T1 sequence (P37091 1-650): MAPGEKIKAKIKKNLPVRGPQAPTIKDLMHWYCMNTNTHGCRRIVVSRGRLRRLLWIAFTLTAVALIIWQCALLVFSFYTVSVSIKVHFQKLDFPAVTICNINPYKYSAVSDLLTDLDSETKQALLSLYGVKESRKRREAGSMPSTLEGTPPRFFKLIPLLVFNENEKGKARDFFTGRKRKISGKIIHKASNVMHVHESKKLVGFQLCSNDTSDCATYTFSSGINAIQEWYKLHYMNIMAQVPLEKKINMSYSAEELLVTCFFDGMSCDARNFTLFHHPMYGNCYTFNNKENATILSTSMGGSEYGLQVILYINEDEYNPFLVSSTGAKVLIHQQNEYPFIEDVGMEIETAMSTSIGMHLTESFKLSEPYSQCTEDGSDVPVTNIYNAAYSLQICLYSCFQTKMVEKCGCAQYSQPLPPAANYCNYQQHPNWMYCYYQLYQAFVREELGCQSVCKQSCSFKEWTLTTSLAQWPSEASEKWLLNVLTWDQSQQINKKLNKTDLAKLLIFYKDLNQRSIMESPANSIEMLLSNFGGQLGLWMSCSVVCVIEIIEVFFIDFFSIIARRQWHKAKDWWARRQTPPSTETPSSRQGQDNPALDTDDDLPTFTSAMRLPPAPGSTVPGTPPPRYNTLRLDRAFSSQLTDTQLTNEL

[4] = target: T2, ASIC3 (Homo sapiens, UniProt Q9UHC3); details: cited from earlier work
T2 sequence (Q9UHC3 1-531): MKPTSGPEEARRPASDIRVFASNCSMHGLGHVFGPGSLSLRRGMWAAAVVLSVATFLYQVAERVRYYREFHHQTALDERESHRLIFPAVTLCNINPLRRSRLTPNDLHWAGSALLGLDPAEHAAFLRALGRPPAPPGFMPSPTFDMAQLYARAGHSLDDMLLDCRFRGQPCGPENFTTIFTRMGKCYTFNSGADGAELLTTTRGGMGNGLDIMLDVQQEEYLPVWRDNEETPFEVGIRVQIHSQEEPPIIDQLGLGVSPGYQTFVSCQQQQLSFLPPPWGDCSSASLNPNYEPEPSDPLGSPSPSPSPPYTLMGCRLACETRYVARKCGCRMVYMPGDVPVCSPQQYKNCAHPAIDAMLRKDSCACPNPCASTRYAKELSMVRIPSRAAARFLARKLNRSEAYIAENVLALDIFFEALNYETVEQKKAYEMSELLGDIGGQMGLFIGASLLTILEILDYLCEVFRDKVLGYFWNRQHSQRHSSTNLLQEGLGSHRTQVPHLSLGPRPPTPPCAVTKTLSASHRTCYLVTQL

[5] = test system: ASIC3; details: in vivo; cited from earlier work

Compound	increase of amiloride-sensitive Na+ currents versus baseline [1] [fold]	increase of amiloride-sensitive Na+ currents versus baseline [2] [fold]	increase of amiloride-sensitive Na+ currents versus baseline [3]	ASIC3 currents [4]	pain related behavior [5]
AP301: ENaC activator; human TNF-α-derived cyclic peptide composed of 17 natural amino acids	~16	~13	about 9 fold	–	–
Cc1nc(NC(=N)N)nc2ccccc12 [GMQ, 2-guanidine-4-methylquinazoline]	–	–	–	induces persistent ASIC3 currents	induces pain related behavior
